Source: patent publication US5668161A, “Substituted thiazoles for the treatment of inflammation” (G.D. Searle & Co., priority 1996, dated 1997)

Tests used:
COX II enzyme = details: E. Meade et al; Futaki et al; cited from earlier work
murine COX-I = molecular target: T1, murine COX-I (Mus musculus, UniProt P22437); experiment: COX I activity in vitro, murine (PGE2 by ELISA)
T1 sequence (P22437 27-602): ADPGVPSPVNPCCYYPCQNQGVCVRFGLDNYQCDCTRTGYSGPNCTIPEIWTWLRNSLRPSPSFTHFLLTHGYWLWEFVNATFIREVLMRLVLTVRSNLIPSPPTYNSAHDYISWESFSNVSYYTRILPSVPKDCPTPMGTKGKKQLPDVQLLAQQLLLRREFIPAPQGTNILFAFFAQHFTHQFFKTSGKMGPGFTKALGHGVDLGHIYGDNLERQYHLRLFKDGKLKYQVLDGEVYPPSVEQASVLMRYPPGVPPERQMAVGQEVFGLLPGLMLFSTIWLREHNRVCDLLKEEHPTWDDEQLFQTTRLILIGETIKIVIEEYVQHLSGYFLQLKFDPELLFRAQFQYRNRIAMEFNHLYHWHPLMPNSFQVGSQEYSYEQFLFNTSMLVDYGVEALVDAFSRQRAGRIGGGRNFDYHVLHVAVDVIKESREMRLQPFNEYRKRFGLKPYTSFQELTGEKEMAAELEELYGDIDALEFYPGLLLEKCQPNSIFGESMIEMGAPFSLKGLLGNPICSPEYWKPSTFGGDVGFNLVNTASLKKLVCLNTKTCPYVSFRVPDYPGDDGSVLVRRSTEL

carrageenan foot edema = experiment: Rat Carrageenan Foot Pad Edema Test; assay type: in vivo, rat (Male Sprague-Dawley); details: @ 20 mg/kg body weight, oral, 3 hours after carrageenan, read-out: RAT PAW EDEMA % Inhibition
Experimental: Male Sprague-Dawley rats were selected in each group so that the average body weight was as close as possible. Rats were fasted with free access to water for over sixteen hours prior to the test. […] One hour later a subplantar injection of 0.1 mL of 1% solution of carrageenan/sterile 0.9% saline was administered and the volume of the injected foot was measured with a displacement plethysmometer connected to a pressure transducer with a digital indicator. Three hours after the injection of the carrageenan, the volume of the foot was again measured. […] Rat Carrageenan-induced Analgesia Test

[1] = test system: carrageenan-induced hyperalgesic foot withdrawal; experiment: Rat Carrageenan-induced Analgesia Test; assay type: in vivo, rat (Male Sprague-Dawley); details: for inhibition at 20 mg/kg: read-out: ANALGESIA % Inhibition, @ 20 mg/kg body weight, oral, 3 hours after carrageenan
Experimental: The carrageenan foot edema test was performed with materials, reagents and procedures essentially as described by Winter, et al., (Proc. Soc. Exp. Biol. Med., 111, 544 (1962)). Male Sprague-Dawley rats were selected in each group so that the average body weight was as close as possible. Rats were fasted with free access to water for over sixteen hours prior to the test. The rats were dosed orally (1 mL) with compounds suspended in vehicle containing 0.5% methylcellulose and 0.025% surfactant, or with vehicle alone. One hour later a subplantar injection of 0.1 mL of 1% solution of carrageenan/sterile 0.9% saline was administered and the volume of the injected foot was measured with a displacement plethysmometer connected to a pressure transducer with a digital indicator. Three hours after the injection of the carrageenan, the volume of the foot was again measured. The average foot swelling in a group of drug-treated animals was compared with that of a group of placebo-treated animals and the percentage inhibition of edema was determined (Otterness and Bliven, Laboratory Models for Testing NSAIDS, in Non-steroidal Anti-Inflammatory Drugs, (J. Lombardino, ed. 1985)). […] Rat Carrageenan-induced Analgesia Test
The analgesia test using rat carrageenan was performed with materials, reagents and procedures essentially as described by Hargreaves, et al., (Pain, 32, 77 (1988)). Male Sprague-Dawley rats were treated as previously described for the Carrageenan Foot Pad Edema test. Three hours after the injection of the carrageenan, the rats were placed in a special plexiglass container with a transparent floor having a high intensity lamp as a radiant heat source, positionable under the floor. After an initial twenty minute period, thermal stimulation was begun on either the injected foot or on the contralateral uninjected foot. […] The time until the rat withdraws its foot was then measured. The withdrawal latency in seconds was determined for the control and drug-treated groups, and percent inhibition of the hyperalgesic foot withdrawal determined.

murine COX-II = molecular target: T2, murine COX-II (Mus musculus, UniProt Q05769); experiment: biochemical
T2 sequence (Q05769 18-604): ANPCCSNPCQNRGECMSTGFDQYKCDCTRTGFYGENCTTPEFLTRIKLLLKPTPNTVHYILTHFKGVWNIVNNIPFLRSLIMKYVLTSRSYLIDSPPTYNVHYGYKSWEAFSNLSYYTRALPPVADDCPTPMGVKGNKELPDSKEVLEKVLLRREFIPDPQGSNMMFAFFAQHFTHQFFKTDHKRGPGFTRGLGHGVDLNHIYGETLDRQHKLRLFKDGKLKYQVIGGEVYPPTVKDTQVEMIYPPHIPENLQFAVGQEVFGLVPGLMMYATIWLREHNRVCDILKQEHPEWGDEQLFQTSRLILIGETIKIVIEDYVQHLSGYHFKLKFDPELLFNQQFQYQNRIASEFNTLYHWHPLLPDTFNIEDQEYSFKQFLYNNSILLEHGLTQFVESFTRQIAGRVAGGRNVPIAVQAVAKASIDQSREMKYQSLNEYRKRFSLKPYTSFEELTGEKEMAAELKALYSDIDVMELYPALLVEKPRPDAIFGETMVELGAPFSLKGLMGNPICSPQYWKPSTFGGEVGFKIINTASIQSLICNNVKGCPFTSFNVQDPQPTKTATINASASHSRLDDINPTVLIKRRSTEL

human COX-II = molecular target: T3, human COX-II (Homo sapiens, UniProt P35354); experiment: COX II activity in vitro, human (PGE2 by ELISA)
T3 sequence (P35354 18-604): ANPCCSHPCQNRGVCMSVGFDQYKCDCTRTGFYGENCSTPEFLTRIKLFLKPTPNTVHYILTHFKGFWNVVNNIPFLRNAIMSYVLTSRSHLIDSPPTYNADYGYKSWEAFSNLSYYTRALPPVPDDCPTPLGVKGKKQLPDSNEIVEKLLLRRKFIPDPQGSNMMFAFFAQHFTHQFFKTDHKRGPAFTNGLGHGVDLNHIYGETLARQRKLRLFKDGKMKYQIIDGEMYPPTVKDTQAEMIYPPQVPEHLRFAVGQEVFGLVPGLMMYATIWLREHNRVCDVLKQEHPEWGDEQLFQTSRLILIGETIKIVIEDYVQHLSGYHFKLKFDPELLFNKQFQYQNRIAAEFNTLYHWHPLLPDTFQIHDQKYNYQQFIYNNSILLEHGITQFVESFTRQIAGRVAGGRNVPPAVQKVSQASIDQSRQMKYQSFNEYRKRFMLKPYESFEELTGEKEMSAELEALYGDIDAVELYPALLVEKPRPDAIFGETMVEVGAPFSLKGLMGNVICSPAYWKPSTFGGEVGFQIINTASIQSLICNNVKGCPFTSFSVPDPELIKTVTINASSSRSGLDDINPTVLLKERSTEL

human COX-I = human COX-I (Homo sapiens, UniProt P23219); experiment: COX I activity in vitro, human (PGE2 by ELISA)
human COX-I, sequence (P23219 24-599): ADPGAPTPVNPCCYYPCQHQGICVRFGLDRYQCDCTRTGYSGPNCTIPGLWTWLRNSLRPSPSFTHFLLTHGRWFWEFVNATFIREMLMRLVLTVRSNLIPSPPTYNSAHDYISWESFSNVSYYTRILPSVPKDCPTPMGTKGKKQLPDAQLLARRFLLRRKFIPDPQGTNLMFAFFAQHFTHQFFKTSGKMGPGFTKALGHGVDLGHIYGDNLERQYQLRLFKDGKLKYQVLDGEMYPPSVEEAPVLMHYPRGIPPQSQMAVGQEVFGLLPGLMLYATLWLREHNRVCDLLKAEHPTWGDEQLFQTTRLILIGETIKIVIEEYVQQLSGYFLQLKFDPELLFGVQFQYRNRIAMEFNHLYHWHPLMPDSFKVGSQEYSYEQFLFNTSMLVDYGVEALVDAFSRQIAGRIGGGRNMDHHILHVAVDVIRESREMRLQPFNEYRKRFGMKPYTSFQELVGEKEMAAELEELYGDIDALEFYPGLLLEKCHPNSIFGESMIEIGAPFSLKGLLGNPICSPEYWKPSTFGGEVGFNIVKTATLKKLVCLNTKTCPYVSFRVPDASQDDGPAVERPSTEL

Compound	IC50 (murine COX-I)	IC50 (murine COX-II)	IC50 (human COX-II)	IC50 (human COX-I)	inhibition of the COX II enzyme (COX II enzyme)	inhibition at 20 mg/kg (carrageenan foot edema)	inhibition at 20 mg/kg [1]	inhibition at 30 mg/kg ([1]; read-out: ANALGESIA % Inhibition, a @ 30 mg/kg, oral, 3 hours after carrageenan)
COc1ccc2cc(CC(=O)O)ccc2c1 [6-methoxy-2-napthylacetic acid]					selectively inhibit the COX II enzyme			
CS(=O)(=O)c1ccc(-c2sc(-c3ccccc3Cl)nc2-c2ccc(F)cc2)cc1 [Example 16, 2-(2-Chlorophenyl)-4-(4-fluorophenyl)-5-(4-methylsulfonylphenyl)thiazole]	> 10000 nM	< 100 nM	< 100 nM			50%	27%	
CS(=O)(=O)Nc1ccc([N+](=O)[O-])cc1OC1CCCCC1 [N-(2-cyclohexyloxy-4-nitrophenyl)methanesulfonamide]					inhibits the COX II enzyme			

Now from value to compound, other results behind:

IC50 (murine COX-I)	IC50 (murine COX-II)	IC50 (human COX-II)	IC50 (human COX-I)	Compound	inhibition of the COX II enzyme (COX II enzyme)	inhibition at 20 mg/kg (carrageenan foot edema)	inhibition at 20 mg/kg [1]	inhibition at 30 mg/kg ([1]; read-out: ANALGESIA % Inhibition, a @ 30 mg/kg, oral, 3 hours after carrageenan)
500 nM	100 nM			CS(=O)(=O)c1ccc(-c2sc(NCc3ccccc3)nc2-c2ccc(F)cc2)cc1 [Example 29, 4-(4-Fluorophenyl)-5-(4-methylsulfonylphenyl)-2-benzylaminothiazole]		42%	24%	
		< 100 nM	> 100000 nM	CS(=O)(=O)c1ccc(-c2sc(COc3cc(Cl)cc(Cl)c3)nc2-c2ccc(F)cc2)cc1 [Example 33, 2-[(3,5-Dichlorophenoxy)methyl)-4-(4-fluorophenyl)-5-[4-(methylsulfonyl)phenyl]thiazole]		36%		34%
